“Also recorded” adds a separate entry of the source. Marks after values point to notes of the source that are not given here.
Key:
GCGR = biological target: T1, GCGR (Homo sapiens, UniProt P47871); assay: In vitro cell activity, cAMP production in HEK293 cells expressing GCGR; format: cell-based
T1 construct: expressed in transfected cells; host or cells: HEK293 (HEK293-GCGR)
In short: (§1)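 HEK293 transfectants, 4×10^5 cells/mL, 384-well. Detection: cAMP-d2 + anti-cAMP cryptate 1:1, RT 1 h dark or 4 °C o/n. Read 665/620 nm; 4-parameter nonlinear fit → EC50.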

GIPR = biological target: T2, GIPR (Homo sapiens, UniProt P48546); assay: In vitro cell activity, cAMP production in HEK293 cells expressing GIPR; format: cell-based
T2 construct: expressed in transfected cells; host or cells: HEK293 (HEK293-GIPR)
T2 sequence (P48546 22-466): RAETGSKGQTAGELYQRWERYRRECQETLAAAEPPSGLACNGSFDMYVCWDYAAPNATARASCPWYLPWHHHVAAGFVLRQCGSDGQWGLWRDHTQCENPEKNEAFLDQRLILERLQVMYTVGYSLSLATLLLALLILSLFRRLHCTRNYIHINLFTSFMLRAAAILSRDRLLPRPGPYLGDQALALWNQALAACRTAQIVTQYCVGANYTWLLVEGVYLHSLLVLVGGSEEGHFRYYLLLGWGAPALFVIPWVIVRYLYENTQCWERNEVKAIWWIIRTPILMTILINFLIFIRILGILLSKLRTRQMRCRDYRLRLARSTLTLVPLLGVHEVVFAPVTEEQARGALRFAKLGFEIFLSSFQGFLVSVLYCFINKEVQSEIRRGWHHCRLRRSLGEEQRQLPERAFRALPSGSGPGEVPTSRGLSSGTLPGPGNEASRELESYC
In short: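 HEK293 cells expressing human GIPR, thawed and diluted to 4×10^5 cells/mL, are stimulated with test compound. cAMP is measured by HTRF competition between cAMP-d2 and anti-cAMP cryptate. EC50 comes from a four-parameter nonlinear fit of signal ratio against concentration.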

GLP-1R = biological target: T3, GLP-1R (Homo sapiens, UniProt P43220); assay: In vitro cell activity, cAMP production in HEK293 cells expressing GLP-1R; format: cell-based
T3 construct: expressed in transfected cells; host or cells: HEK293 (HEK293-GLP-1R)
In short: as §1

[1] = In vivo efficacy evaluation in db/db mouse model (blood glucose); set-up: species or system db/db mice
Experimental: Blood glucose was tested before each administration.

[2] = Long-term repeated administration in diet-induced obese C57BL/6 mice (DIO); format: in vivo, C57/BL6 mice
[3] = 10 nmol/kg s.c. once every 3 days, D7
[4] = 10 nmol/kg s.c. once every 3 days, D10
[5] = 10 nmol/kg s.c. once every 3 days, D13
[6] = 10 nmol/kg s.c. once every 3 days, D16
[7] = 10 nmol/kg s.c. once every 3 days, D19
[8] = 10 nmol/kg s.c. once every 3 days, D22
[9] = 10 nmol/kg s.c. once every 3 days, D25
[10] = 10 nmol/kg s.c. once every 3 days, D28
[11] = after 4 weeks of administration
[12] = after 4 weeks of administration, same dose
[13] = long-term administration 10 nmol/kg, 72 h after the last administration
[14] = long-term administration 10 nmol/kg, blood biochemical index

T3 sequence (P43220 24-463, species assumed): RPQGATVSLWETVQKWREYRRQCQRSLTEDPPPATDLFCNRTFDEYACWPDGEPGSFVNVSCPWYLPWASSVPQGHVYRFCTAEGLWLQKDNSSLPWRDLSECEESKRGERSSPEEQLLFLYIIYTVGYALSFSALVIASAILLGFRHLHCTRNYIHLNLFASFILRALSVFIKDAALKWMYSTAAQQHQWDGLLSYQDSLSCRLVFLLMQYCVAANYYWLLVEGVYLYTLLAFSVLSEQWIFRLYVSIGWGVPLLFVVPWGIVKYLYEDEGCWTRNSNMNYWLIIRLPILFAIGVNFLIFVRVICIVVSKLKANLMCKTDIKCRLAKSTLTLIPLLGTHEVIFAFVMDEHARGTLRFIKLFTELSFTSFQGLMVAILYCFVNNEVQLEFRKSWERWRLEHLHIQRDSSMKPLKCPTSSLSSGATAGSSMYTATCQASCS
T1 sequence (P47871 26-477, species assumed): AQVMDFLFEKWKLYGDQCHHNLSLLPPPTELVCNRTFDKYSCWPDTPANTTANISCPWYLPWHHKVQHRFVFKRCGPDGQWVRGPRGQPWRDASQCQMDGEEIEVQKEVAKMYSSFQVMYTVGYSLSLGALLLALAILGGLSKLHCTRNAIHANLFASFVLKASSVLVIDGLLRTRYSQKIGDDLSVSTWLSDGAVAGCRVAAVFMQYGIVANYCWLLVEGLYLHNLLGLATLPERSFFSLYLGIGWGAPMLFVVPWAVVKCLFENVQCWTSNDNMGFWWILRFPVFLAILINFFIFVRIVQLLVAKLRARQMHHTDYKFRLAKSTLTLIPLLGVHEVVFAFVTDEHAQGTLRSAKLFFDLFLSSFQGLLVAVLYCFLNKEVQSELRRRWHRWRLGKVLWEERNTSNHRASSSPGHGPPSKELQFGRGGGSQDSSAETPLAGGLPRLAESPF

## CC[C@H](C)[C@H](NC(=O)[C@H](Cc1ccccc1)NC(=O)[C@H](C)NC(=O)[C@H](CCCNC(=N)N)NC(=O)[C@H](CCC(N)=O)NC(=O)[C@H](CCCNC(=N)N)NC(=O)[C@H](CCCCNC(=O)COCCOCCNC(=O)CC[C@H](NC(=O)CCCCCCCCCCCCCCCCCCC(=O)O)C(=O)O)NC(=O)[C@H](CCC(=O)O)NC(=O)[C@H](CC(=O)O)NC(=O)[C@H](CC(C)C)NC(=O)[C@H](CC(C)C)NC(=O)[C@@H](NC(=O)[C@H](CO)NC(=O)[C@H](Cc1ccc(O)cc1)NC(=O)[C@H](CC(=O)O)NC(=O)[C@H](CO)NC(=O)[C@@H](NC(=O)[C@](C)(Cc1ccccc1F)NC(=O)[C@@H](NC(=O)CNC(=O)[C@H](CCC(N)=O)NC(=O)C(C)(C)NC(=O)[C@@H](N)Cc1ccc(O)cc1)[C@@H](C)O)[C@@H](C)O)[C@@H](C)CC)C(=O)N[C@@H](CCC(=O)O)C(=O)N[C@@H](Cc1ccc(O)cc1)C(=O)N[C@@H](CC(C)C)C(=O)N[C@@H](CC(C)C)C(=O)N[C@@H](C)C(=O)NCC(=O)NCC(=O)N1CCC[C@H]1C(=O)N[C@@H](CO)C(=O)N[C@@H](CO)C(=O)NCC(=O)N[C@@H](C)C(=O)N1CCC[C@H]1C(=O)N1CCC[C@H]1C(=O)N1CCC[C@H]1C(=O)N[C@@H](CO)C(=O)O [HEC-PT86]
GCGR
  EC50: 0.806 nM
GIPR
  EC50: 0.113 nM
GLP-1R
  EC50: 0.158 nM
[1]; db/db mice, 10 nmol/kg
  blood glucose after administration: significantly reduce blood glucose
[1]; db/db mice, 10 nmol/kg s.c. once every three days, D0 (before first dose)
  Random blood glucose (mM) D0: 27.3 ± 3.6 mM
[1]; db/db mice, 10 nmol/kg s.c. once every three days, D3
  Random blood glucose (mM) D3: 9.2 ± 5.6 mM
[1]; db/db mice, 10 nmol/kg s.c. once every three days, D4
  Random blood glucose (mM) D4: 16.2 ± 6.5 mM
[1]; db/db mice, 10 nmol/kg s.c. once every three days, D5
  Random blood glucose (mM) D5: 18.8 ± 5.7 mM
[1]; db/db mice, 10 nmol/kg s.c. once every three days, D6
  Random blood glucose (mM) D6: 23.0 ± 3.7 mM
[1]; db/db mice, 10 nmol/kg s.c. once every three days, D7
  Random blood glucose (mM) D7: 21.0 ± 4.4 mM
[1]; db/db mice, 10 nmol/kg s.c. once every three days, D10
  Random blood glucose (mM) D10: 9.1 ± 2.3 mM
[1]; db/db mice, 10 nmol/kg s.c. once every three days, D13
  Random blood glucose (mM) D13: 9.6 ± 3.2 mM
[1]; db/db mice, 10 nmol/kg s.c. once every three days, D16
  Random blood glucose (mM) D16: 8.4 ± 1.7 mM
[1]; db/db mice, 10 nmol/kg s.c. once every three days, D19
  Random blood glucose (mM) D19: 12.0 ± 3.3 mM
[1]; db/db mice, 10 nmol/kg s.c. once every three days, D22
  Random blood glucose (mM) D22: 11.6 ± 3.8 mM
[1]; db/db mice, 10 nmol/kg s.c. once every three days, D25
  Random blood glucose (mM) D25: 13.1±3.3^a mM
[1]; db/db mice, 10 nmol/kg s.c., 6 h
  Random blood glucose (mM) 6 h: 15.4 ± 4.4 mM
[1]; db/db mice, 10 nmol/kg s.c., 24 h
  Random blood glucose (mM) 24 h: 6.5 ± 1.4 mM
[1]; db/db mice, 10 nmol/kg s.c., 48 h
  Random blood glucose (mM) 48 h: 7.9 ± 2.8 mM
[1]; db/db mice, 10 nmol/kg, after administration
  time at which blood glucose levels reached the lowest level: about 24 hours
[1]; db/db mice, long-term repeated administration
  blood glucose lowering after long-term administration compared with LY3298176: better than that of the LY3298176 group; also recorded: better hypoglycemic effect than LY3298176
[1]; db/db mice, same dose 10 nmol/kg
  blood glucose reducing effect after administration compared with LY3298176: slightly better than the positive control LY3298176
[1]; type II diabetes model db/db mice
  blood glucose level after long-term administration: significantly improve the blood glucose level
[2]; [3]
  Cumulative food intake (g/pcs) D7: 8.4 g/pcs
  Weight gain rate (%) D7: -17.8±5.8%
[2]; [4]
  Cumulative food intake (g/pcs) D10: 11.6 g/pcs
  Weight gain rate (%) D10: -23.5±6.6%
[2]; [5]
  Cumulative food intake (g/each) D13: 14.5 g/each
  Weight gain rate (%) D13: -26.1±7.2%
[2]; [6]
  Cumulative food intake (g/each) D16: 19.3 g/each
  Weight gain rate (%) D16: -27.9±7.6%
[2]; [7]
  Cumulative food intake (g/each) D19: 24.5 g/each
  Weight gain rate (%) D19: -29.2±8.1%
[2]; [8]
  Cumulative food intake (g/each) D22: 30.4 g/each
  Weight gain rate (%) D22: -29.3±7.2%
[2]; [9]
  Cumulative food intake (g/each) D25: 36.6 g/each
  Weight gain rate (%) D25: -30.6±7.0%
[2]; [10]
  Cumulative food intake (g/each) D28: 43.4 g/each
  Weight gain rate (%) D28: -31.2±6.4%
[2]; 10 nmol/kg s.c. once every 3 days, D30
  Cumulative food intake (g/each) D30: 47.0^a g/each
[2]; 10 nmol/kg s.c. once every 3 days, D31
  Weight gain rate (%) D31: -30.9±6.4^a %
[2]; 10 nmol/kg s.c., D0
  Cumulative food intake (g/pcs) D0: 2.5 g/pcs
  Weight gain rate (%) D0: 0.0±0.0%
[2]; 10 nmol/kg s.c., D1
  Cumulative food intake (g/pcs) D1: 2.9 g/pcs
  Weight gain rate (%) D1: -6.0±0.8%
[2]; 10 nmol/kg s.c., D2
  Cumulative food intake (g/pcs) D2: 3.5 g/pcs
  Weight gain rate (%) D2: -8.8±1.4%
[2]; 10 nmol/kg s.c., D3
  Cumulative food intake (g/pcs) D3: 4.5 g/pcs
  Weight gain rate (%) D3: -9.9±1.6%
[2]; 10 nmol/kg s.c., D4
  Cumulative food intake (g/pcs) D4: 5.8 g/pcs
  Weight gain rate (%) D4: -10.6±2.9%
[2]; [11]
  liver function and blood lipids of DIO mice: significantly improved the liver function and blood lipids
  weight loss and food intake inhibition effects compared with Semaglutide: superior to the positive drug Semaglutide
[2]; [12]
  food intake inhibition effect compared with LY3298176: comparable to those of the same dose of the positive drug LY3298176
  weight loss effect compared with LY3298176: comparable to those of the same dose of the positive drug LY3298176
[2]; [13]
  Liver index/%: 2.7±0.0^a %
  Liver/g: 0.9±0.1^a g
  Weight/g: 32.3±4.4^a g
[2]; [14]
  ALT (U/L): 27.8±9.4^a U/L
  AST (U/L): 108.6±26.3^a U/L
  CHOL (mmol/L): 3.5±0.7^a mmol/L
  TRIGL (mmol/L): 0.6±0.1^a mmol/L
